This assay deals with Human osteosarcoma U20S cells. Description: Assay to measure lysosome and autolysosome formation (acidic vesicle formation, LysoView/LysoTracker staining). Particulars: U2OS cells, concentration of 0.8 μM; for activation at 0.8 µM: Homo sapiens. It is filed as cell-based. As to the method: Lysosomes play a fundamental role in the autophagic pathway by fusing with autophagosomes and creating ‘autolysosomes’ in order to digest their contents. Stimulation of lysosome and autolysosome formation by a compound is indicative of a stimulation of autophagy. The ability of compounds to stimulate lysosome and autolysosome formation, and thus autophagy, in live cells was assessed via fluorescent microscopy using various fluorescent stains for labelling and tracking acidic organelles (including lysosomes and autolysosomes) such as: LysoView™ 650 (70059 and 70059-T, Biotium), LysoViewTM633 (70058 and 70058-T, Biotium) and LysoTracker™ Deep Red (L12492, ThermoFisher Scientific). The cellular phenotype was quantitatively assessed for the induction of acidic vesicle formation and compared to a non-treated control, thus providing a measure of the ability of the compound under investigation to stimulate autophagy.
Representative procedure using LysoView™633 dye or LysoTracker™ Deep Red dye: Human osteosarcoma U20S cells (40,000 cells/well) were seeded in a 24 well glass bottom plate (Sensoplate, Greiner Bio-One) and were incubated overnight in a humidified atmosphere at 37° C. and 5% CO2. Cells were grown in DMEM (Gibco) supplemented with 10% Fetal Bovine Serum (FBS) and 100 units/ml penicillin and 100 μg/ml streptomycin (Invitrogen). After the attachment period, cells were treated with different compounds of interest (at various concentrations in DMSO) or DMSO (non-treated control) in cell culture medium and were incubated for 24 hours. Compound-containing medium was removed and cells were incubated with pre-warmed cell culture medium containing 1× LysoView™ 633 (70058 and 70058-T, Biotium) or 50 nM LysoTracker™ Deep Red (L12492, ThermoFisher Scientific) for 45 minutes at 37° C. Finally, cell nuclei were stained for 10 minutes using Hoechst 33342 (1 μg/mL) and then the medium was replaced with fresh medium. The 24 well plate was then fitted into a heated stage on the microscope and cells maintained at 37° C. Images were captured using appropriate filter set for Cy5 and DAPI detection with the EVOS M7000 Microscope (ThermoFisher Scientific). The cellular phenotype was visually assessed for the induction of acidic vesicle formation relative to the non-treated control; multiple images were acquired and analyzed using ImageJ or Cell Profiler.

The mark [1] stands for this setting: read-out: Activity (percentage increase in acidic vesicle formation over the DMSO-treated control), Table 2.
Where [2] appears, read: read-out: Activity (percentage increase in acidic vesicle formation), Table 2a Preferred compounds.

Read-outs that look alike come from different tables or passages of the source.

In the case of `CCCN(C(=O)c1csc(-c2cnn(-c3cccc(F)c3)c2)n1)[C@H]1CCNC1` [Compound 52, 2-[1-(3-fluorophenyl)-1H-pyrazol-4-yl]-N-propyl-N-[(3S)-pyrrolidin-3-yl]-1,3-thiazole-4-carboxamide], the activation at 0.8 µM under setting [1] lay within 10 to 30%.

For `CCCN(C(=O)c1csc(-c2cnn(-c3cccc(F)c3)c2)n1)[C@@H]1CCNC1` [Compound 53, 2-[1-(3-fluorophenyl)-1H-pyrazol-4-yl]-N-propyl-N-[(3R)-pyrrolidin-3-yl]-1,3-thiazole-4-carboxamide], the activation at 0.8 µM under setting [1] lay within 10 to 30%.

Regarding `CCCN(C(=O)c1csc(-c2cnn(-c3ccc(F)cc3)c2)n1)[C@@H]1CCNC1` [Compound 54, 2-[1-(4-fluorophenyl)-1H-pyrazol-4-yl]-N-propyl-N-[(3R)-pyrrolidin-3-yl]-1,3-thiazole-4-carboxamide], the activation at 0.8 µM under setting [1] was 10 to 30%.

For the compound `CCCN(C(=O)c1csc(-c2cnn(-c3cccc(OC)c3)c2)n1)[C@@H]1CCNC1` [Compound 56, 2-[1-(3-methoxyphenyl)-1H-pyrazol-4-yl]-N-propyl-N-[(3R)-pyrrolidin-3-yl]-1,3-thiazole-4-carboxamide], the activation at 0.8 µM under setting [1] was 10 to 30%.

Regarding `Cc1ccc(-n2cc(-c3nc(C(=O)N(C(C)C)C4CCNCC4)cs3)cn2)cc1` [Compound 57, 2-[1-(4-methylphenyl)-1H-pyrazol-4-yl]-N-(piperidin-4-yl)-N-(propan-2-yl)-1,3-thiazole-4-carboxamide], the activation at 0.8 µM under setting [1] lay in the range of 30 to 50%.

Regarding `CCCN(C(=O)c1csc(-c2cnn(-c3ccc(F)cc3)c2)n1)[C@H]1CCNC1` [Compound 58, 2-[1-(4-fluorophenyl)-1H-pyrazol-4-yl]-N-propyl-N-[(3S)-pyrrolidin-3-yl]-1,3-thiazole-4-carboxamide], the activation at 0.8 µM under setting [1] was in the range of 10 to 30%.

With `CCCN(C(=O)c1cc(-c2cnn(-c3ccccc3)c2)cs1)[C@H]1CCNC1` [Compound 59, 4-(1-phenyl-1H-pyrazol-4-yl)-N-propyl-N-[(3S)-pyrrolidin-3-yl]thiophene-2-carboxamide], the activation at 0.8 µM under setting [1] fell in the range of 10 to 30%.

For the compound `CCCN(C(=O)c1csc(-c2cnn(-c3ccc(C)cc3)c2)n1)[C@@H]1CCNC1` [Compound 65, 2-[1-(4-methylphenyl)-1H-pyrazol-4-yl]-N-propyl-N-[(3R)-pyrrolidin-3-yl]-1,3-thiazole-4-carboxamide], under setting [1], the activation at 0.8 µM is 30 to 50%.

In the case of `CC(C)N(C(=O)c1csc(-c2cnn(-c3ccccc3Cl)c2)n1)C1CCNCC1` [Compound 66, 2-[1-(2-chlorophenyl)-1H-pyrazol-4-yl]-N-(piperidin-4-yl)-N-(propan-2-yl)-1,3-thiazole-4-carboxamide], under setting [1], the activation at 0.8 µM was 10 to 30%.

For `CCCN(C(=O)c1csc(-c2ccc(-c3ccccc3)s2)n1)[C@H]1CCNC1` [Compound 69, 2-(5-phenylthiophen-2-yl)-N-propyl-N-[(3S)-pyrrolidin-3-yl]-1,3-thiazole-4-carboxamide], the activation at 0.8 µM under setting [1] fell in the range of 30 to 50%.

Turning to `CCCN(C(=O)c1csc(-c2ccc(-c3ccccc3)s2)n1)[C@@H]1CCNC1` [Compound 70, 2-(5-phenylthiophen-2-yl)-N-propyl-N-[(3R)-pyrrolidin-3-yl]-1,3-thiazole-4-carboxamide], the activation at 0.8 µM under setting [1] was 30 to 50%.

Take `NC[C@H]1CCCN1C(=O)c1csc(-c2cnn(-c3ccc(C(F)(F)F)cc3)c2)n1` [Compound 76, 1-[(2R)-1-(2-{1-[4-(trifluoromethyl)phenyl]-1H-pyrazol-4-yl}-1,3-thiazole-4-carbonyl)pyrrolidin-2-yl]methanamine]: under setting [1], the activation at 0.8 µM was in the range of 10 to 30%.

As to `CCCN(C(=O)c1csc(-c2cnn(-c3ccccc3C(F)(F)F)c2)n1)[C@H]1CCNC1` [Compound 82, N-propyl-N-[(3S)-pyrrolidin-3-yl]-2-{1-[2-(trifluoromethyl)phenyl]-1H-pyrazol-4-yl}-1,3-thiazole-4-carboxamide], the activation at 0.8 µM under setting [1] lay in the range of 30 to 50%.

With `CCCN(C(=O)c1csc(-c2cnn(-c3ccccc3C(F)(F)F)c2)n1)[C@@H]1CCNC1` [Compound 83, N-propyl-N-[(3R)-pyrrolidin-3-yl]-2-{1-[2-(trifluoromethyl)phenyl]-1H-pyrazol-4-yl}-1,3-thiazole-4-carboxamide], the activation at 0.8 µM under setting [1] fell in the range of 30 to 50%.

Turning to `Cc1ccccc1-n1cc(-c2nc(C(=O)N(C(C)C)C3CCNCC3)cs2)cn1` [Compound 84, 2-[1-(2-methylphenyl)-1H-pyrazol-4-yl]-N-(piperidin-4-yl)-N-(propan-2-yl)-1,3-thiazole-4-carboxamide], under setting [1], the activation at 0.8 µM lay in the range of 10 to 30%.

On to `Cc1ccccc1-n1cc(-c2nc(C(=O)N3CCC[C@@H]3CN)cs2)cn1` [Compound 86, 1-[(2R)-1-{2-[1-(2-methylphenyl)-1H-pyrazol-4-yl]-1,3-thiazole-4-carbonyl}pyrrolidin-2-yl]methanamine], for which, under setting [1], the activation at 0.8 µM was in the range of 30 to 50%.

As to `CCCN(C(=O)c1csc(-c2cnn(-c3ccccc3C)c2)n1)[C@H]1CCNC1` [Compound 87, 2-[1-(2-methylphenyl)-1H-pyrazol-4-yl]-N-propyl-N-[(3S)-pyrrolidin-3-yl]-1,3-thiazole-4-carboxamide], the activation at 0.8 µM under setting [1] fell in the range of 10 to 30%.

`CCCN(C(=O)c1csc(-c2cnn(-c3ccccc3Cl)c2)n1)[C@H]1CCNC1` [Compound 89, 2-[1-(2-chlorophenyl)-1H-pyrazol-4-yl]-N-propyl-N-[(3S)-pyrrolidin-3-yl]-1,3-thiazole-4-carboxamide]: the activation at 0.8 µM under setting [1] fell in the range of 10 to 30%.

For `CCCN(C(=O)c1csc(-c2cnn(-c3ccccc3Cl)c2)n1)[C@@H]1CCNC1` [Compound 90, 2-[1-(2-chlorophenyl)-1H-pyrazol-4-yl]-N-propyl-N-[(3R)-pyrrolidin-3-yl]-1,3-thiazole-4-carboxamide], the activation at 0.8 µM under setting [1] lay in the range of 10 to 30%.

As for `CCCN(C(=O)c1csc(-c2cnn(-c3ccccc3F)c2)n1)[C@H]1CCNC1` [Compound 92, 2-[1-(2-fluorophenyl)-1H-pyrazol-4-yl]-N-propyl-N-[(3S)-pyrrolidin-3-yl]-1,3-thiazole-4-carboxamide], the activation at 0.8 µM runs as follows: under setting [1], 50 to 100%; under setting [2], 50 to 100%.

With `CCCN(C(=O)c1ccc(-c2cnn(-c3ccccc3)c2)[nH]1)[C@H]1CCNC1` [Compound 93, 5-(1-phenyl-1H-pyrazol-4-yl)-N-propyl-N-[(3S)-pyrrolidin-3-yl]-1H-pyrrole-2-carboxamide], the “Activity (percentage increase in acidic vesicle formation), Table 2b More preferred compounds” value is recorded as “++++ (a percentage increase in acidic vesicle of greater than 100% over the DMSO-treated control)”. For the same compound, the activation at 0.8 µM under setting [1] is over 100%. Besides, the activation at 0.8 µM under setting [2] is 50 to 100%.

`CCCN(C(=O)c1ccc(-c2cnn(-c3ccccc3)c2)[nH]1)[C@@H]1CCNC1` [Compound 94, 5-(1-phenyl-1H-pyrazol-4-yl)-N-propyl-N-[(3R)-pyrrolidin-3-yl]-1H-pyrrole-2-carboxamide]: the “Activity (percentage increase in acidic vesicle formation), Table 2b More preferred compounds” value was “++++ (a percentage increase in acidic vesicle of greater than 100% over the DMSO-treated control)”. Moreover, the activation at 0.8 µM under setting [1] is over 100%. In addition, the activation at 0.8 µM under setting [2] was in the range of 50 to 100%.

As to `CC(C)N(C(=O)c1csc(-c2cnn(-c3ccccc3F)c2)n1)C1CCNCC1` [Compound 95, 2-[1-(2-fluorophenyl)-1H-pyrazol-4-yl]-N-(piperidin-4-yl)-N-(propan-2-yl)-1,3-thiazole-4-carboxamide], the activation at 0.8 µM under setting [1] was in the range of 50 to 100% and the activation at 0.8 µM under setting [2] was in the range of 50 to 100%.

On to `CCCN(C(=O)c1csc(-c2cnn(-c3ccccc3F)c2)n1)[C@@H]1CCNC1` [Compound 97, 2-[1-(2-fluorophenyl)-1H-pyrazol-4-yl]-N-propyl-N-[(3R)-pyrrolidin-3-yl]-1,3-thiazole-4-carboxamide], for which the activation at 0.8 µM under setting [1] was in the range of 30 to 50%.

With `CCCN(C(=O)c1ccc(-c2cnn(-c3ccccc3)c2)o1)[C@H]1CCNC1` [Compound 98, 5-(1-phenyl-1H-pyrazol-4-yl)-N-propyl-N-[(3S)-pyrrolidin-3-yl]furan-2-carboxamide], the activation at 0.8 µM was in the range of 50 to 100% under setting [1] and 50 to 100% under setting [2].

For the compound `CCCN(C(=O)c1ccc(-c2cnn(-c3ccccc3)c2)o1)[C@@H]1CCNC1` [Compound 99, 5-(1-phenyl-1H-pyrazol-4-yl)-N-propyl-N-[(3R)-pyrrolidin-3-yl]furan-2-carboxamide], the activation at 0.8 µM is, setting by setting: under setting [1], 50 to 100%; under setting [2], 50 to 100%.

On to `O=C(NCC1CCNCC1)c1ccc(-c2cnn(-c3ccccc3)c2)o1` [Compound 100, 5-(1-phenyl-1H-pyrazol-4-yl)-N-[(piperidin-4-yl)methyl]furan-2-carboxamide], for which the activation at 0.8 µM under setting [1] lay in the range of 30 to 50%.

The record behind these values is patent US20250049776A1, “AUTOPHAGY INDUCING COMPOUNDS AND USES THEREOF, IN PARTICULAR FOR A SYSTEMIC TREATMENT OF DISEASES AND CONDITIONS” (Samsara Therapeutics Inc., priority 2021, published 2025).
